In series [1] the test system is ECV-304. The series is described as follows: Membrane permeabilization effect on lysosome of human ECV304 cells assessed as induction of membrane lysis at 24 to 48 uM after 1 hr by N-Acetylglucosaminidase release assay. It counts as functional, cell-based.
Series [2] relates to ECV-304. Briefly: Membrane permeabilization effect on human ECV304 cells assessed as increase in propidium iodide uptake at 12 uM after 1 hr by FACS flow cytometric analysis. It counts as functional, cell-based. (A flow cytometer gives signals particle by particle.)
For series [3], the system named is ECV-304. The series is described as follows: Membrane permeabilization effect on human ECV304 cells at 3 uM measured every 15 secs for 3 hrs by real time impedance-based plate reader analysis. It counts as functional, cell-based.
Series [4] can be described thus: Hemolytic activity against human RBC at 6 uM after 30 mins relative to control. It is filed as ADME, cell-based, Erythrocyte. The settings on record: red blood cells (RBC), read-out: Activity.
For series [5], the system named is ECV-304. The series is described as follows: Membrane permeabilization effect on human ECV304 cells assessed as normalized cell index at 12 to 24 uM measured every 15 secs for 3 hrs by real time impedance-based plate reader analysis relative to control relative to control. It counts as functional.
Series [6] relates to ECV-304. Briefly: Membrane permeabilization effect on lysosome of human ECV304 cells assessed as induction of membrane lysis up to 6 uM after 1 hr by N-Acetylglucosaminidase release assay. It is filed as functional, cell-based.
A short description of series [7]: Hemolytic activity against human RBC at 12 uM after 30 mins relative to control. It counts as ADME, cell-based, Erythrocyte. The settings on record: for hemolysis at 0.5 h, 12 µM: red blood cells (RBC), read-out: Activity.
For series [8], the system named is ECV-304. The series is described as follows: Membrane permeabilization effect on human ECV304 cells assessed as normalized cell index at 6 uM measured every 15 secs for 3 hrs by real time impedance-based plate reader analysis relative to control. It counts as functional.
The test system of series [9] is ECV-304. The series is described as follows: Membrane permeabilization effect on human ECV304 cells assessed as induction of membrane lysis at 48 uM after 1 hr. It is filed as functional, cell-based.
The subject of series [10] is ECV-304. The series is described as follows: Membrane permeabilization effect on human ECV304 cells at 12 to 24 uM measured every 15 secs for 3 hrs by real time impedance-based plate reader analysis. It counts as functional, cell-based.
A short description of series [11]: Hemolytic activity against human RBC up to 12 uM after 30 mins. It is filed as ADME, cell-based. Particulars: erythrocyte, 0.5 h.
Series [12] concerns ECV-304. The series is described as follows: Membrane permeabilization effect on human ECV304 cells at 6 uM measured every 15 secs for 3 hrs by real time impedance-based plate reader analysis. It is filed as functional, cell-based.
The nature of series [13]: Hemolytic activity against human RBC at 48 uM after 30 mins. Particulars: erythrocyte, 0.5 h. It counts as ADME, cell-based.
For series [14], the system named is ECV-304. The series is described as follows: Membrane permeabilization effect on lysosome of human ECV304 cells assessed as induction of membrane lysis at 48 uM after 1 hr by N-Acetylglucosaminidase release assay. It is filed as functional, cell-based.
For series [15], the system named is ECV-304. The series is described as follows: Membrane permeabilization effect on human ECV304 cells assessed as increase in propidium iodide uptake at 24 to 48 uM after 1 hr by FACS flow cytometric analysis. It is filed as functional, cell-based.
The nature of series [16]: Hemolytic activity against human RBC at 24 uM after 30 mins relative to control. It counts as ADME, cell-based, Erythrocyte.
In series [17] the test system is ECV-304. Briefly: Membrane permeabilization effect on human ECV304 cells assessed as normalized cell index at 24 uM measured every 15 secs for 3 hrs by real time impedance-based plate reader analysis relative to control. It counts as functional.
Series [18] deals with ECV-304. The series is described as follows: Cytotoxicity against human ECV304 cells at 24 uM after 3 hrs. Particulars: ecv-304, 3 h. It counts as cell-based.
The nature of series [19]: Hemolytic activity against human RBC at 3 uM after 30 mins relative to control. It counts as ADME, cell-based, Erythrocyte. Particulars: red blood cells (RBC), read-out: Activity.
In series [20] the test system is ECV-304. The series is described as follows: Membrane permeabilization effect on lysosome of human ECV304 cells at 6 to 48 uM after 1 hr by N-Acetylglucosaminidase release assay. It is filed as functional, cell-based.
Series [21] concerns ECV-304. Briefly: Membrane permeabilization effect on human ECV304 cells assessed as increase in propidium iodide uptake at 24 uM after 1 hr by FACS flow cytometric analysis. It counts as functional, cell-based.
Series [22] relates to ECV-304. The series is described as follows: Membrane permeabilization effect on human ECV304 cells assessed as propidium iodide uptake up to 48 uM after 1 hr by FACS flow cytometric analysis. It counts as functional, cell-based.
For series [23], the system named is ECV-304. The series is described as follows: Membrane permeabilization effect on human ECV304 cells at 3 to 6 uM measured every 15 secs for 3 hrs by real time impedance-based plate reader analysis. It counts as functional, cell-based.
The nature of series [24]: Hemolytic activity against human RBC at 1.5 to 48 uM after 30 mins. It counts as ADME, cell-based. The settings on record: erythrocyte, 0.5 h.
For series [25], the system named is ECV-304. The series is described as follows: Membrane permeabilization effect on human ECV304 cells assessed as normalized cell index at 12 uM measured every 15 secs for 3 hrs by real time impedance-based plate reader analysis relative to control. It counts as functional.
For series [26], the system named is ECV-304. Briefly: Membrane permeabilization effect on lysosome of human ECV304 cells up to 48 uM after 1 hr by N-Acetylglucosaminidase release assay. It is filed as functional, cell-based.
Series [27] has as its system ECV-304. The series is described as follows: Membrane permeabilization effect on human ECV304 cells at 3 to 24 uM measured every 15 secs for 3 hrs by real time impedance-based plate reader analysis. It counts as functional, cell-based.
The test system of series [28] is ECV-304. The series is described as follows: Membrane permeabilization effect on human ECV304 cells assessed as normalized cell index at 24 uM measured every 15 secs for 3 hrs by real time impedance-based plate reader analysis relative to control relative to control. It counts as functional.

Active and inactive are the calls of the source. The calls are words filed in the database; no cut-off is given here.

As for `CC(=O)O[C@H]1[C@H](O[C@@H]2OC[C@@H](O)[C@H](O)[C@H]2O)[C@@H](O)[C@H](O[C@@H]2[C@H](O)[C@@H](O[C@@H]3O[C@@H](C)[C@H](O[C@@H]4OC[C@@H](O)[C@H](O[C@@H]5OC[C@@H](O)[C@H](O)[C@H]5O)[C@H]4O)[C@@H](O)[C@H]3O)[C@H](OC(=O)[C@]34CCC(C)(C)C[C@H]3C3=CC[C@@H]5[C@@]6(C)CC[C@H](O[C@H]7O[C@H](C(=O)O)[C@@H](O)[C@H](O[C@@H]8OC[C@@H](O)[C@H](O)[C@H]8O)[C@H]7O[C@@H]7O[C@H](CO)[C@H](O)[C@H](O)[C@H]7O)[C@@](C)(C=O)[C@@H]6CC[C@@]5(C)[C@]3(C)C[C@H]4O)O[C@@H]2C)O[C@@H]1C`, the result in [1], in series [2] and in series [9] was Active. For the same molecule, the outcome in series [3] and in series [6] was inactive. For the same molecule, the hemolysis at 0.5 h, 6 µM in series [4] stood at 61%. The “fold change (FC)” value was found to be 0 in series [5] and 0.6 in series [8]. Also, the Activity result in series [7] (erythrocyte, 0.5 h, 12 µM) was “Toxic”.

As to `C[C@@H]1O[C@@H](O[C@H]2[C@H](OC(=O)[C@]34CCC(C)(C)C[C@H]3C3=CC[C@@H]5[C@@]6(C)CC[C@H](O[C@H]7O[C@H](C(=O)O)[C@@H](O)[C@H](O[C@@H]8OC[C@@H](O)[C@H](O)[C@H]8O)[C@H]7O[C@@H]7O[C@H](CO)[C@H](O)[C@H](O)[C@H]7O)[C@@](C)(C=O)[C@@H]6CC[C@@]5(C)[C@]3(C)CC4)O[C@H](C)[C@H](O[C@@H]3O[C@H](C)[C@@H](O)[C@H](O)[C@H]3O)[C@@H]2O)[C@H](O)[C@H](O)[C@H]1O[C@@H]1OC[C@@H](O)[C@H](O[C@@H]2OC[C@@H](O)[C@H](O)[C@H]2O)[C@H]1O`, the result in series [10], in series [6] and in series [14] was inactive. For the same molecule, the Activity entry is “Non-toxic” in series [11] and “Toxic” in [13]. For the same molecule, the result in series [12] and in series [15] was Active. Further, the hemolysis at 0.5 h, 24 µM in [16] (red blood cells (RBC), read-out: Activity) is 30%.

For the molecule `CCC(C)C(CC(O)CC(=O)O[C@H]1[C@@H](O)[C@@H](C)O[C@@H](OC(=O)[C@]23CCC(C)(C)C[C@H]2C2=CC[C@@H]4[C@@]5(C)CC[C@H](O[C@H]6O[C@H](C(=O)O)[C@@H](O)[C@H](O[C@@H]7OC[C@@H](O)[C@H](O)[C@H]7O)[C@H]6O[C@@H]6O[C@H](CO)[C@H](O)[C@H](O)[C@H]6O)[C@@](C)(C=O)[C@@H]5CC[C@@]4(C)[C@]2(C)C[C@H]3O)[C@@H]1O[C@@H]1O[C@@H](C)[C@H](O[C@@H]2OC[C@@H](O)[C@H](O[C@@H]3OCC(O)(O)[C@H]3O)[C@H]2O)[C@@H](O[C@@H]2O[C@H](CO)[C@@H](O)[C@H](O)[C@H]2O)[C@H]1O)OC(=O)CC(O)CC(O[C@@H]1O[C@@H](CO)[C@H](O)[C@H]1O[C@@H]1O[C@@H](C)[C@H](O)[C@@H](O)[C@H]1O)C(C)CC` (stereo in doubt; form 1), the hemolysis at 0.5 h, 6 µM in series [4] is 27%. The “fold change (FC)” value in series [17] was found to be 0.1. For the same molecule, the hemolysis at 0.5 h, 12 µM in [7] stood at 67%. In addition, the Activity entry in series [18] is “Toxic”; in [16] (erythrocyte, 0.5 h, 24 µM), “Toxic”.

In the case of `C[C@@H]1CC[C@@]2(OC1)O[C@H]1[C@@H](O)[C@H]3[C@@H]4CC[C@H]5C[C@@H](O[C@@H]6O[C@H](CO)[C@H](O[C@@H]7O[C@H](CO)C(O)[C@H](O[C@@H]8OC[C@@H](O)[C@H](O)[C@H]8O)[C@H]7O[C@@H]7O[C@H](CO)[C@H](O)[C@H](O[C@@H]8O[C@H](CO)[C@@H](O)[C@H](O)[C@H]8O)[C@H]7O)[C@H](O)[C@H]6O)[C@H](O)C[C@]5(C)[C@H]4CC[C@]3(C)[C@H]1[C@@H]2C` (stereo partly drawn) [DIGITONIN], the hemolysis at 0.5 h, 3 µM in [19] came out at 22%. Moreover, the outcome in series [3], in series [20], in series [21] and in series [9] was Active. The hemolysis at 0.5 h, 6 µM in series [4] was determined as 68%. The result in series [6] was inactive. For the same molecule, the hemolysis at 0.5 h, 12 µM in [7] is above 80%.

Take `CC1(C)[C@@H](O[C@H]2O[C@H](C(=O)O)[C@@H](O)[C@H](O)[C@H]2O[C@@H]2O[C@H](C(=O)O)[C@@H](O)[C@H](O)[C@H]2O)CC[C@]2(C)[C@H]3C(=O)C=C4[C@@H]5C[C@@](C)(C(=O)O)CC[C@]5(C)CC[C@@]4(C)[C@]3(C)CC[C@@H]12` [GLYCYRRHIZIN]: the outcome in series [22], in series [23], in series [25], in series [6], in [26] and in [27] was inactive. For the same molecule, in [28], the outcome was inactive. The Activity entry in series [24] was “Non-toxic”.

Values taken from ChEMBL document CHEMBL2346628, “Real-time analysis of membrane permeabilizing effects of oleanane saponins” (Bioorg Med Chem, 2013).
